From US4690937A, “Anti-hypertensive agents” (University of Miami, priority 1979, dated 1987)
Where two headings read alike, the source gives them in different places. Values belong to the compound of their own block, whether it stands above or below them. Residues, ends and D or L forms follow the SMILES beside them. *: point of attachment. Bz = O=C(c1ccccc1)*

Columns and labels:
ACE [1] = target: T1, ACE (Homo sapiens, UniProt P12821); test: ACE activity assay in vitro (I50, hydrolysis of [3H]-Benzoyl-GlyHisLeu); assay type: biochemical
T1 construct: same enzyme (human urinary ACE); from tissue; host or cells: human urine (purified as described by Ryan et al., Tissue and Cell 10, 555 (1978))
Procedure: These factors include the source of enzyme, its purity, the substrate used and its concentration, and the composition of the assay buffer. All I50 data reported herein have been performed with the same assay system and same enzyme (human urinary ACE) and with an approximately 1/2 Km level of substrate and are therefore internaly consistent.
To initiate the assay, 40 μl of enzyme and 10 μl of water or inhibitor dissolved in water were preincubated for five minutes at 37° C. […] To terminate the reaction, 1 ml of 0.1M HCl was added, following which 1 ml of ethyl acetate was added. The mixture was agitated on a rotary mixer and centrifuged briefly to separate the phases.
An aliquot, 500μl, of the ethyl acetate layer was transferred to a liquid scintillation vial containing 10 ml of Riafluor, trademark New England Nuclear Corporation, Boston, Mass. For determination of I50 values, enzyme activity in the presence of inhibitor at a series of different concentrations was compared to activity in the absence of inhibitor.

[2] = test system: mean arterial blood pressure response to angiotensin I; test: Oral effectiveness: blood pressure response to angiotensin I in anesthetized rats; assay type: in vivo; settings: rat, oral 20 μmol/kg, -5 min (pre-dose control, 25 mm Hg)
Procedure: (§1) Rats (210-290 g body weight) were fasted overnight and then anesthetized with intraperitoneal pentobarbital, 50-60 mg/kg. Tracheostomy was performed and the animals were ventilated mechanically. A cannula was inserted into a femoral vein for injection of angiotensin I, and a second cannula was inserted into a common carotid artery for direct measurement of arterial blood pressure. Heparin, 1,000 units, was injected via the femoral vein to prevent coagulation. Blood pressure was measured with a pressure transducer connected to a polygraph. The rats were injected with […] of angiotensin I in 20μl of 0.9 g % NaCl; an amount of angiotensin I sufficient to raise mean arterial blood pressure by 25 mm Hg. After the responsiveness of a given rat to angiotensin I was established, the named compound at 20 μmol/kg (drug dissolved in 0.15 ml of H2 O plus 10μl of 1 N NaHCO3), was given via a stomach tube. At timed intervals, the effects of 400 ng/kg of angiotensin I on mean arterial blood pressure were tested.

[3] = test system: mean arterial blood pressure response to angiotensin I; test: Intravenous effectiveness: blood pressure response to angiotensin I in anesthetized rats; assay type: in vivo; settings: rat, in words
Procedure: as §1, with “tested. Results are shown below:” for “tested.”
Anesthetized rats were prepared as described in Example 18. The named compound was administered intravenously via a femoral vein, at the stated dose, in 15 μl of 0.01 N sodium bicarbonate. […] The time required for recovery of one half the lost responsiveness to angiotensin I, following injection of the named compound, is designated t1/2. […]

ACE [4] = target: T1, ACE; settings: previously disclosed compounds of copending applications, read-out: I50, cited from earlier work
ACE [5] = settings: disulfide formed on standing of aqueous solution; cited from earlier work

T1 sequence (P12821 30-1232 limits assumed): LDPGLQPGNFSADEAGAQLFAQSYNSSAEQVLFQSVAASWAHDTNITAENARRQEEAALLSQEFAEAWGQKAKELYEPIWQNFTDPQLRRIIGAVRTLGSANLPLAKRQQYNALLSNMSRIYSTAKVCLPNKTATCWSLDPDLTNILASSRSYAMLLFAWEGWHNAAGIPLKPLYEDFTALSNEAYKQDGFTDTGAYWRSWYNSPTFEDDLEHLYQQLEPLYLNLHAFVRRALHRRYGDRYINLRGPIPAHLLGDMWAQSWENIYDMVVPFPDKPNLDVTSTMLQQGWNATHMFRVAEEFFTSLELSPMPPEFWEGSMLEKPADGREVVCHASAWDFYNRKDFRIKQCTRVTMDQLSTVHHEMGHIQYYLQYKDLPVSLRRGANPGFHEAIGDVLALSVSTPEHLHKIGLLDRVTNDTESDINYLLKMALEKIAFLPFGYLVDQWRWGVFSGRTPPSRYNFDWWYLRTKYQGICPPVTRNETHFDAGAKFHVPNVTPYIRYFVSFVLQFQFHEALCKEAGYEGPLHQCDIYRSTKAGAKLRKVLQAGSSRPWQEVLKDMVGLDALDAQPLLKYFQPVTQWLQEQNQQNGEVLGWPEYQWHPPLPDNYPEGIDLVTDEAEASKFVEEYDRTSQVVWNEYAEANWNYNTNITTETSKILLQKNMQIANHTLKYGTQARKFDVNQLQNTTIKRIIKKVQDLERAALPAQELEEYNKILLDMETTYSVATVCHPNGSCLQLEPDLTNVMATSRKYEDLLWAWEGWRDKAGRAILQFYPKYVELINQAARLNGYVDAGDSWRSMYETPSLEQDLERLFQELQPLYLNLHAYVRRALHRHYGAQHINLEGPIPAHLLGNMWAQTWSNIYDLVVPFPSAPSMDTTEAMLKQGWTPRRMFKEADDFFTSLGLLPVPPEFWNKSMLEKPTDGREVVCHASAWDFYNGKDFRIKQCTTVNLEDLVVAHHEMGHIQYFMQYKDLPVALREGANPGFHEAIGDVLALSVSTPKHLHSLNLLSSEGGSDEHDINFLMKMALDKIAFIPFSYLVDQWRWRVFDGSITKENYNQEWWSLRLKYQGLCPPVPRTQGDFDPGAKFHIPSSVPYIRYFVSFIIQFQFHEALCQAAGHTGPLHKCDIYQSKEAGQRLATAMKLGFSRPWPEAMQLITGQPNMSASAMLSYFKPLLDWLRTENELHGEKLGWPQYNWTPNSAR

IC50 (ACE [1]; ACE purified from human urine, pH 8.0, 37° C., Benzoyl-GlyHisLeu 1×10^-4 M): 9.4 nM
Structure (SMILES): C[C@H](CSC(=O)[C@H](Cc1c[nH]c2ccccc12)NC(=O)c1ccccc1)C(=O)N1CCC[C@H]1C(=O)O [N^α -[3-(Nα-benzoyl-L-tryptophylthio)-2-D-methylpropanoyl]-L-proline]
Blood Pressure Response to 400 ng/kg of Angiotensin I [2]: 100 % of Control | Response to intravenous administration (responsiveness to Angiotensin I, 400 ng/kg) [3]: rapid decrease in responsiveness to Angiotensin I, 400 ng/kg, followed by a gradual recovery to the pretreatment level of responsiveness

Structure (SMILES): CC(SC(=O)[C@H](Cc1ccccc1)NC(=O)c1ccccc1)C(=O)N1CC=C[C@H]1C(=O)O (stereo partly drawn) [N-(2-benzoylphenylalanylthiopropanoyl)-L-3,4-dehydroproline]
IC50 (ACE [4]; for racemic compound): 3 nM

Structure (SMILES): C[C@H](CSSC[C@@H](C)C(=O)N1CCC[C@H]1C(=O)O)C(=O)N1CCC[C@H]1C(=O)O [disulfide]
ACE inhibition by the disulfide dimer (ACE [5]): largely inactive as an inhibitor

Structure (SMILES): CC(C)C[C@H](NC(=O)[C@H](Cc1cnc[nH]1)NC(=O)CNC(=O)c1ccccc1)C(=O)O [Benzoyl-GlyHisLeu, reference compound] (Bz-Gly-His-Leu-OH)
Km (ACE [1]; substrate Benzoyl-GlyHisLeu, 0.05M Hepes pH 8.0, 0.1M NaCl, 0.75M Na2 SO4): ~200 µM

Structure (SMILES): O=C(N[C@@H](Cc1ccccc1)C(=O)SCCC(=O)N1CCC[C@H]1C(=O)O)c1ccccc1
IC50 (ACE [4]; approximate): ~700 nM
